Experimental data from PMC5201331, “Subchronic Toxicities of HZ1006, a Hydroxamate-Based Histone Deacetylase Inhibitor, in Beagle Dogs and Sprague-Dawley Rats” (International Journal of Environmental Research and Public …, 2016).

Test system: Beagle dogs
Test: Subchronic toxicity test in Beagle dogs: serum biochemistry
Format: in vivo
Experimental: HZ1006 was administered orally to dogs (four/sex/group) at doses of 80, 40, 20, 5 and 0 (control) mg/kg/day, and the dosage volume was 2 mL/kg. The dogs received test doses with the exact amounts on a weekly basis based on current body weights. […] The other dogs in the above groups were dissected on the planned days. For the other groups, half of the dogs were anatomized on d28 and the remaining half on d42.
The following indexes were examined for the dogs used in the study, twice during the pre-dosage period and on d14, d28 and d42. The following parameters were evaluated on d28 and d42 for the rats in the study:
The animal blood samples were collected in the tubes containing the coagulator and centrifuged at 500 g for 10 min; the supernatant was then collected into a new tube. The serum biochemistry indexes included the following: alanine aminotransferase (ALT), alkaline phosphatase (ALP), aspartate aminotransferase (AST), blood urea (BU), lactate dehydrogenase (LDH), total bilirubin (TBIL), creatinine (Crea), albumin (ALB), total protein (TP), triglycerides (TG), total cholesterol (TCH), γ-glutamyltranspeptidase (g-GT), glucose (GLU), creatine phosphokinase (CPK), uric acid (UA), phosphorus (P), and calcium (Ca^2+). The above parameters were analyzed using an Automatic Analyzer 7080 provided by Hitachi High-Technologies Corp. (Tokyo, Japan). An Na/K/Cl Analyzer EasyLyte PLUS from Medica Corp. (Bedford, MA, USA), was used to determine the levels of chloride (Cl^−), sodium (Na^+) and potassium (K^+) in the blood samples.

[1] = dog ♀6 (80 mg/kg/day oral), d0 (pre-dose)
[2] = dog ♀6 (80 mg/kg/day oral), d14 line (moribund, euthanized d8)
[3] = dog ♀28 (40 mg/kg/day oral), d0 (pre-dose)
[4] = dog ♀28 (40 mg/kg/day oral), d14 (died d16)
[5] = dogs, 5 mg/kg/day oral, d0 (pre-dose)
[6] = dogs, 5 mg/kg/day oral, d42 (recovery)
[7] = dogs, 20 mg/kg/day oral, d0 (pre-dose)

CCCCCCCNc1cc(/C=C/C(=O)NO)ccc1OCCN(CC)CC [HZ1006]
ALP: Alkaline phosphatase [1]: 1.50 µmol/s/L | ALT: Alanine aminotransferase [1]: 487 nmol/s/L | AST: Aspartate aminotransferase [1]: 456 nmol/s/L | BU: Blood urea [1]: 4.04 mmol/L | CPK: Creatine phosphokinase [1]: 3.06 µmol/s/L | CREA: Creatinine [1]: 52.8 µmol/L | LDH: Lactate dehydrogenase [1]: 2.78 µmol/s/L | TBIL: Total bilirubin [1]: 2.95 µmol/L | TCH: Total cholesterol [1]: 3.27 mmol/L | ALP: Alkaline phosphatase [2]: 3.86 µmol/s/L | ALT: Alanine aminotransferase [2]: 466 nmol/s/L | AST: Aspartate aminotransferase [2]: 1907 nmol/s/L | BU: Blood urea [2]: 15.20 mmol/L | CPK: Creatine phosphokinase [2]: 57.57 µmol/s/L | CREA: Creatinine [2]: 82.4 µmol/L | LDH: Lactate dehydrogenase [2]: 2.91 µmol/s/L | TBIL: Total bilirubin [2]: 11.53 µmol/L | TCH: Total cholesterol [2]: 11.04 mmol/L | TG: Triglycerides (dog ♀6 (80 mg/kg/day oral), printed in d0 line): 1.60 mmol/L | TCH: Total cholesterol (dog ♀6 (80 mg/kg/day oral), printed in d42 line): 0.31 mmol/L | ALP: Alkaline phosphatase [3]: 1.33 µmol/s/L | ALT: Alanine aminotransferase [3]: 428 nmol/s/L | AST: Aspartate aminotransferase [3]: 398 nmol/s/L | BU: Blood urea [3]: 4.08 mmol/L | CPK: Creatine phosphokinase [3]: 2.47 µmol/s/L | CREA: Creatinine [3]: 47.9 µmol/L | LDH: Lactate dehydrogenase [3]: 2.21 µmol/s/L | TBIL: Total bilirubin [3]: 2.18 µmol/L | TCH: Total cholesterol [3]: 5.85 mmol/L | ALP: Alkaline phosphatase [4]: 3.16 µmol/s/L | ALT: Alanine aminotransferase [4]: 852 nmol/s/L | AST: Aspartate aminotransferase [4]: 4924 nmol/s/L | BU: Blood urea [4]: 4.89 mmol/L | CPK: Creatine phosphokinase [4]: 6.39 µmol/s/L | CREA: Creatinine [4]: 37.8 µmol/L | LDH: Lactate dehydrogenase [4]: 2.06 µmol/s/L | TBIL: Total bilirubin [4]: 9.65 µmol/L | TCH: Total cholesterol [4]: 10.73 mmol/L | ALP: Alkaline phosphatase [5]: 1.47 ± 0.30 µmol/s/L | ALT: Alanine aminotransferase [5]: 559 ± 120 nmol/s/L | AST: Aspartate aminotransferase [5]: 463 ± 106 nmol/s/L | BU: Blood urea [5]: 4.03 ± 0.52 mmol/L | CPK: Creatine phosphokinase [5]: 2.94 ± 1.40 µmol/s/L | CREA: Creatinine [5]: 51.5 ± 9.3 µmol/L | LDH: Lactate dehydrogenase [5]: 3.08 ± 1.36 µmol/s/L | TBIL: Total bilirubin [5]: 2.34 ± 0.31 µmol/L | TCH: Total cholesterol [5]: 4.28 ± 0.36 mmol/L | TG: Triglycerides [5]: 0.43 ± 0.11 mmol/L | ALP: Alkaline phosphatase (dogs, 5 mg/kg/day oral, d14): 1.45 ± 0.35 µmol/s/L | ALT: Alanine aminotransferase (dogs, 5 mg/kg/day oral, d14): 521 ± 116 nmol/s/L | AST: Aspartate aminotransferase (dogs, 5 mg/kg/day oral, d14): 442 ± 105 nmol/s/L | BU: Blood urea (dogs, 5 mg/kg/day oral, d14): 4.10 ± 0.90 mmol/L | CPK: Creatine phosphokinase (dogs, 5 mg/kg/day oral, d14): 2.63 ± 1.36 µmol/s/L | CREA: Creatinine (dogs, 5 mg/kg/day oral, d14): 51.0 ± 9.9 µmol/L | LDH: Lactate dehydrogenase (dogs, 5 mg/kg/day oral, d14): 2.27 ± 1.24 µmol/s/L | TBIL: Total bilirubin (dogs, 5 mg/kg/day oral, d14): 2.01 ± 0.41 µmol/L | TCH: Total cholesterol (dogs, 5 mg/kg/day oral, d14): 3.98 ± 0.64 mmol/L | TG: Triglycerides (dogs, 5 mg/kg/day oral, d14): 0.39 ± 0.08 mmol/L | ALP: Alkaline phosphatase (dogs, 5 mg/kg/day oral, d28): 1.51 ± 0.29 µmol/s/L | ALT: Alanine aminotransferase (dogs, 5 mg/kg/day oral, d28): 593 ± 105 nmol/s/L | AST: Aspartate aminotransferase (dogs, 5 mg/kg/day oral, d28): 424 ± 109 nmol/s/L | BU: Blood urea (dogs, 5 mg/kg/day oral, d28): 3.82 ± 0.51 mmol/L | CPK: Creatine phosphokinase (dogs, 5 mg/kg/day oral, d28): 2.43 ± 0.19 µmol/s/L | CREA: Creatinine (dogs, 5 mg/kg/day oral, d28): 51.4 ± 10.9 µmol/L | LDH: Lactate dehydrogenase (dogs, 5 mg/kg/day oral, d28): 2.71 ± 1.12 µmol/s/L | TBIL: Total bilirubin (dogs, 5 mg/kg/day oral, d28): 2.08 ± 0.52 µmol/L | TCH: Total cholesterol (dogs, 5 mg/kg/day oral, d28): 4.24 ± 0.56 mmol/L | TG: Triglycerides (dogs, 5 mg/kg/day oral, d28): 0.35 ± 0.11 mmol/L | ALP: Alkaline phosphatase [6]: 1.45 ± 0.37 µmol/s/L | ALT: Alanine aminotransferase [6]: 558 ± 90 nmol/s/L | AST: Aspartate aminotransferase [6]: 451 ± 79 nmol/s/L | BU: Blood urea [6]: 4.83 ± 0.20 mmol/L | CPK: Creatine phosphokinase [6]: 2.97 ± 0.18 µmol/s/L | CREA: Creatinine [6]: 55.6 ± 4.5 µmol/L | LDH: Lactate dehydrogenase [6]: 2.21 ± 1.32 µmol/s/L | TBIL: Total bilirubin [6]: 2.01 ± 0.33 µmol/L | TCH: Total cholesterol [6]: 3.99 ± 0.41 mmol/L | TG: Triglycerides [6]: 0.31 ± 0.09 mmol/L | ALP: Alkaline phosphatase [7]: 1.48 ± 0.48 µmol/s/L | ALT: Alanine aminotransferase [7]: 535 ± 92 nmol/s/L | AST: Aspartate aminotransferase [7]: 456 ± 92 nmol/s/L | BU: Blood urea [7]: 4.35 ± 0.98 mmol/L | CPK: Creatine phosphokinase [7]: 2.98 ± 0.64 µmol/s/L | CREA: Creatinine [7]: 51.6 ± 7.5 µmol/L | LDH: Lactate dehydrogenase [7]: 2.85 ± 0.86 µmol/s/L | TBIL: Total bilirubin [7]: 2.55 ± 0.28 µmol/L | TCH: Total cholesterol [7]: 4.31 ± 0.36 mmol/L | TG: Triglycerides [7]: 0.42 ± 0.09 mmol/L | ALP: Alkaline phosphatase (dogs, 20 mg/kg/day oral, d14): 0.85 ± 0.25 µmol/s/L | ALT: Alanine aminotransferase (dogs, 20 mg/kg/day oral, d14): 425 ± 105 nmol/s/L | AST: Aspartate aminotransferase (dogs, 20 mg/kg/day oral, d14): 384 ± 56 nmol/s/L | BU: Blood urea (dogs, 20 mg/kg/day oral, d14): 4.52 ± 1.05 mmol/L | CPK: Creatine phosphokinase (dogs, 20 mg/kg/day oral, d14): 2.43 ± 0.48 µmol/s/L | CREA: Creatinine (dogs, 20 mg/kg/day oral, d14): 58.6 ± 10.6 µmol/L | LDH: Lactate dehydrogenase (dogs, 20 mg/kg/day oral, d14): 1.23 ± 0.45 µmol/s/L | TBIL: Total bilirubin (dogs, 20 mg/kg/day oral, d14): 1.85 ± 0.16 µmol/L | TCH: Total cholesterol (dogs, 20 mg/kg/day oral, d14): 3.16 ± 0.34 mmol/L | TG: Triglycerides (dogs, 20 mg/kg/day oral, d14): 0.29 ± 0.08 mmol/L
